The target in one series is KRAS G12D (Homo sapiens (Human), UniProt P01116, G12D). The experiment in a line: SOS-catalyzed nucleotide exchange assay (GNE), KRAS G12D. To be noted: TR-FRET, 60 min preincubation. It counts as biochemical. From the text: (§1) Procedure for SOS-Catalyzed Nucleotide Exchange Assay for KRAS-WT, G12C/D/V/A/R/S, G13D, Q61H, HRAS-WT, and NRAS-WT
(§2) Recombinant KRAS-G12C protein used in this assay has an additional triple mutation (C51S/C80L/C118S). Whereas KRAS-WT, G12D/V/A/S/R, G13D, Q61H, HRAS and NRAS are in context of their WT protein sequence background. Specifically, the SOS-catalyzed nucleotide exchange assay utilizes a preformed TR-FRET complex containing a specific biotinylated RAS protein (KRAS-WT, G12C/V/D/A/S/R, G13D, Q61H, HRAS-WT, NRAS-WT; described above) with Bodipy-GDP, and Terbium-streptavidin. Compounds are preincubated with this complex for 60 minutes. Subsequently, recombinant human SOS protein and unlabeled GTP are added to initiate the exchange reaction. Small molecule inhibitors stabilize the Bodipy-GDP complex whereas the untreated protein rapidly exchanges Bodipy-GDP for unlabeled GTP resulting in reduced TR-FRET signal.
(§3) To assemble the preformed TR-FRET complexes, each biotinylated RAS protein is diluted to 2 μM in an EDTA Buffer (20 mM HEPES pH 7.5, 50 mM sodium chloride, 10 mM EDTA, and 0.01% Tween) and incubated at room temperature for one hour. This mixture is then further diluted to 90 nM in an Assay Buffer (20 mM HEPES pH 7.5, 150 mM sodium chloride, 10 mM magnesium chloride, and 0.005% Tween) containing 15 nM of Terbium-Streptavidin (Invitrogen, catalog #PV3577) and 900 nM of Bodipy-GDP (Invitrogen, catalog #G22360) and incubated at room temperature for six hours. It should be noted that this preformed TR-FRET complex for each of the RAS protein were made ahead of time, aliquoted and stored at −80° C. until the day of the experiment.
(§4) Each test compound (10 mM stock in DMSO) is diluted in DMSO to make a final-10-point, 3-fold dilution and is acoustically dispensed into a 384-well assay plate (Corning, catalog #3820) using an Echo 550 (Labcyte). Each well of the assay plate receives 3 μL of a specific 3×RAS preformed TR-FRET complex and 3 μL of Assay Buffer and is incubated at room temperature for 60 minutes (preincubation time). Each well then receives 3 μL of 3× recombinant human SOS protein and GTP (Sigma, G8877) in Assay Buffer and is incubated at room temperature for 30 minutes (G13D), 60 minutes (KRAS WT/G12C/D, H/NRAS) or 90 minutes for G12A/R/S/V and Q61H. The final reaction in each well of 9 μL consists of 3 mM GTP, specific Ras and SOS proteins in the following concentrations: KRAS-G12C/SOS=3 nM/40 nM, KRAS-WT and G12D/SOS=1 nM/40 nM, KRAS-G12V/SOS=1.25 nM/160 nM, KRAS-G12A/S/SOS=1 nM/160 nM, KRAS-G12R/SOS=1 nM/320 nM, KRAS-Q61H/SOS=1 nM/320 nM, KRAS-G13D/SOS=1.25 nM/[…], HRAS-WT and NRAS-WT=1.25 nM/40 nM.
(§5) The time-resolved fluorescence resonance energy transfer (TR-FRET) signal is measured on an Envision (PerkinElmer) plate reader: Excitation filter=340 nm; emission1=495 nm; emission2=520 nm; dichroic mirror=D400/D505; delay time=[…]. The signal of each well is determined as the ratio of the emission at 520 nm to that at 495 nm. Percent effect of each well is determined after normalization to control wells containing DMSO (no effect) or a saturating concentration of inhibitor (max effect). The apparent effect as a function of compound concentration is fit to a four-parameter logistic equation.
(In general: TR-FRET usually uses a lanthanide donor and a delayed reading to cut background.)

Another series has as its target KRAS G13D (Homo sapiens (Human), UniProt P01116, G13D). The experiment in a line: SOS-catalyzed nucleotide exchange assay (GNE), KRAS G13D. The note with it: TR-FRET, 60 min preincubation. It counts as biochemical.
Description: as §1, §2, §3, §4, §5

For another series, the target named is KRAS Q61H (Homo sapiens (Human), UniProt P01116, Q61H). The experiment in a line: SOS-catalyzed nucleotide exchange assay (GNE), KRAS Q61H. It counts as biochemical. The note with it: TR-FRET, 60 min preincubation.
KRAS Q61H, sequence (P01116 other isoform, or with tags, fused parts or gaps Q61H (already in the parent)): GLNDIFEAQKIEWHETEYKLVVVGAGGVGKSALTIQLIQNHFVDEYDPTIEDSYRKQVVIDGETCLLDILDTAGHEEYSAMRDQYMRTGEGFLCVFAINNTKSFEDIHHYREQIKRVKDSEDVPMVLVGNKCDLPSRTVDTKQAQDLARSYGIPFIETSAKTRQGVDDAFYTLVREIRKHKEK
Description: as §1, §2, §3, §4, §5

For the next series, the target named is HRAS (Homo sapiens (Human), UniProt P01112). The experiment in a line: SOS-catalyzed nucleotide exchange assay (GNE), HRAS-WT. Format: biochemical. The note with it: TR-FRET, 60 min preincubation.
HRAS, sequence (P01112 other isoform, or with tags, fused parts or gaps): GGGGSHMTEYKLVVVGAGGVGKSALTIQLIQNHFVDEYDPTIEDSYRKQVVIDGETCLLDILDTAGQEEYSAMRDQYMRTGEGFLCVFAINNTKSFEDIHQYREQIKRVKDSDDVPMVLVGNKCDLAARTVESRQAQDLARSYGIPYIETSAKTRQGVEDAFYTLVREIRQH
Description: as §1, §2, §3, §4, §5

Another series has as its target KRAS G12C (Homo sapiens (Human), UniProt P01116, C118S/C51S/C80L/G12C). The series is described as follows: SOS-catalyzed nucleotide exchange assay (GNE), KRAS G12C. Format: biochemical. The note with it: TR-FRET, 60 min preincubation; protein with C51S/C80L/C118S.
Description: as §1, §2, §3, §4, §5

The next series has as its target KRAS G12A (Homo sapiens (Human), UniProt P01116, G12A). The series is described as follows: SOS-catalyzed nucleotide exchange assay (GNE), KRAS G12A. To be noted: TR-FRET, 60 min preincubation. It counts as biochemical.
Description: as §1, §2, §3, §4, §5

The next series has as its target KRAS G12R (Homo sapiens (Human), UniProt P01116, G12R). The series is described as follows: SOS-catalyzed nucleotide exchange assay (GNE), KRAS G12R. Format: biochemical. The note with it: TR-FRET, 60 min preincubation.
Description: as §1, §2, §3, §4, §5

Series [1] can be described thus: Rat IV/PO pharmacokinetic studies. The note with it: for F % / bioavailability: oral bioavailability, PO 2 mg/kg vs. IV 1 mg/kg; for CLp / MRT / Vd / clearance / bioavailability: plasma; for CLp / MRT / Vd / clearance: IV 1 mg/kg; for clearance: read-out: CLp. It counts as in vivo. The protocol:
Procedure for Rat IV/PO Pharmacokinetic Studies
Plasma pharmacokinetic parameters for clearance, volume of distribution, half-life and oral bioavailability were determined in rats from oral administration and IV administration studies. 4 male rats, typically weighing 225-260 g, were fasted overnight prior to dosing. IV formulation was administered to 2 rats via pre-cannulated jugular vein, and oral dosing was administered to 2 rats via oral gavage. Blood was collected by pre-cannulated artery, typically at predose, 2, 8, 15, 30 min, 1, 2, 4, 6, and 8 hr postdose for IV, and at predose, 15, 30 min, 1, 2, 4, 6, 8 h for oral dosing. Samples were collected in K2EDTA tubes, stored on ice, and centrifuged. Plasma was transferred to a micro titer plate and stored at −70° C. until analysis. Plasma samples were extracted using protein precipitation and analyzed by liquid chromatography separation followed by mass spec detection (LC-MS/MS), using a standard curve for each compound. Plasma pharmacokinetic parameters were calculated for IV and oral dosing data by non-compartmental methods. Oral bioavailability was determined as the ratio of the dose-normalized plasma area under the curve (AUC) following oral dosing vs. IV dosing.

A further series deals with KRAS WT (Homo sapiens (Human), UniProt P01116). The series is described as follows: SOS-catalyzed nucleotide exchange assay (GNE), KRAS WT. Format: biochemical. The note with it: TR-FRET, 60 min preincubation.
KRAS WT, sequence (P01116 other isoform, or with tags, fused parts or gaps): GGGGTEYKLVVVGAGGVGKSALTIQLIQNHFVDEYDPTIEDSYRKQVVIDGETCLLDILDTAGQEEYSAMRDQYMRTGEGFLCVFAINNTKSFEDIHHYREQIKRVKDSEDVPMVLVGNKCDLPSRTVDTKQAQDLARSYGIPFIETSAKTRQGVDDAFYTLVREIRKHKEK
Description: as §1, §2, §3, §4, §5

Read-outs that look alike come from different tables or passages of the source.

KRAS G12D, sequence (P01116 other isoform, or with tags, fused parts or gaps G12D (already in the parent)): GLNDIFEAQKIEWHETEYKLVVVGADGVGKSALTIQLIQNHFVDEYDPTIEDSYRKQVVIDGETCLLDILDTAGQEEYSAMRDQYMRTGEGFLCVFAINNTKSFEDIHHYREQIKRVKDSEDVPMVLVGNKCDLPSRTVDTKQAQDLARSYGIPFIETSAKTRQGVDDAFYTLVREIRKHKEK
KRAS G12A, sequence (P01116 other isoform, or with tags, fused parts or gaps G12A (already in the parent)): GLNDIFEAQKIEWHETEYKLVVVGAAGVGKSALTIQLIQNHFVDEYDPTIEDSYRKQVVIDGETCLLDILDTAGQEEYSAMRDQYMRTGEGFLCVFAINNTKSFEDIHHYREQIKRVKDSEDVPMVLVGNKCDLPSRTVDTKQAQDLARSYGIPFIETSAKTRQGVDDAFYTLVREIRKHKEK
KRAS G12R, sequence (P01116 other isoform, or with tags, fused parts or gaps G12R (already in the parent)): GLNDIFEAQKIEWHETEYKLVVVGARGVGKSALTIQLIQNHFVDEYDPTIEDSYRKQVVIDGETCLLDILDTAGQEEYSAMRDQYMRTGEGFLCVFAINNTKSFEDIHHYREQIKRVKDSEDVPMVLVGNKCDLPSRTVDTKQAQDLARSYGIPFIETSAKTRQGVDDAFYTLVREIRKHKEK
KRAS G12C, sequence (P01116 other isoform, or with tags, fused parts or gaps, stated change not applied): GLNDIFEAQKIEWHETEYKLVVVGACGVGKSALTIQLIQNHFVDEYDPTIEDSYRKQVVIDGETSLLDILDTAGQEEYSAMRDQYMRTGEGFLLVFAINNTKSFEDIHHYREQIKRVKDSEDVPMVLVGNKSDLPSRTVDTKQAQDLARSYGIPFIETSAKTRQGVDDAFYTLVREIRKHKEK
KRAS G13D, sequence (P01116 other isoform, or with tags, fused parts or gaps G13D (already in the parent)): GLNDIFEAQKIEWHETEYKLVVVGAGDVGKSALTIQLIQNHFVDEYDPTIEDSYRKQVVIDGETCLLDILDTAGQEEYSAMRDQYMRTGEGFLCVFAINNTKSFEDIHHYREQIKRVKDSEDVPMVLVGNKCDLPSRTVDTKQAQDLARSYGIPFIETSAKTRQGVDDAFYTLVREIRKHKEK

As to `F/C=C1/CN2CCC[C@@]2(COc2nc3c4c(nc(-c5c(C6CC6)c(Cl)cc6[nH]ncc56)c(F)c4n2)OC[C@@H]2COCCCN32)C1` [Ex-1, (8aS)-5-(6-chloro-5-cyclopropyl-1H-indazol-4-yl)-4-fluoro-2-(((S,Z)-2-(fluoromethylene)tetrahydro-1H-pyrrolizin-7a(5H)-yl)methoxy)-8a,9,12,13-tetrahydro-8H,11H-7,10-dioxa-1,3,6,13a-tetraazanaphtho[1,8-ab]heptalene], the IC50 was 0.67 nM against KRAS G12D; 3.7 nM against KRAS G13D; 1.4 nM on KRAS Q61H; above 11100 nM against HRAS; 6.9 nM at KRAS G12C; below 0.69 nM on KRAS G12A. Also, the IC50 was below 0.69 nM at KRAS G12R and 0.87 nM against KRAS WT. In addition, the F % in series [1] is 11%. Moreover, in series [1], the CLp stood at 24 mL/min/kg. The MRT in series [1] was determined as 1.4 h. In addition, in series [1], the Vd came out at 2.0 L/kg.
On to `CCc1c(F)ccc2cc3[nH]ncc3c(-c3nc4c5c(nc(OC[C@@]67CCCN6C[C@H](F)C7)nc5c3F)N3CCCOC[C@H]3CO4)c12` [Ex-2, (8aS)-5-(5-ethyl-6-fluoro-1H-benzo[f]indazol-4-yl)-4-fluoro-2-(((2R,7aS)-2-fluorotetrahydro-1H-pyrrolizin-7a(5H)-yl)methoxy)-8a,9,12,13-tetrahydro-8H,11H-7,10-dioxa-1,3,6,13a-tetraazanaphtho[1,8-ab]heptalene], for which the IC50 was 0.65 nM on KRAS G12D; 1 nM at KRAS G13D; 1.2 nM on KRAS Q61H; 2740 nM against HRAS; 3.2 nM against KRAS G12C; below 0.69 nM at KRAS G12A. Moreover, the IC50 at KRAS G12R is below 0.69 nM; against KRAS WT, 1.1 nM. Further, the F % in [1] amounted to 10%. Also, the CLp in [1] is 40 mL/min/kg. This compound registered an MRT in series [1] of 2.5 h. In series [1], the Vd amounted to 6.1 L/kg.
As to `Fc1c(-c2c(C3CC3)c(Cl)cc3[nH]ncc23)nc2c3c(nc(OC[C@@]45CCCN4C[C@H](F)C5)nc13)N1CCCOC[C@H]1CO2` [Ex-3, (8aS)-5-(6-chloro-5-cyclopropyl-1H-indazol-4-yl)-4-fluoro-2-(((2R,7aS)-2-fluorotetrahydro-1H-pyrrolizin-7a(5H)-yl)methoxy)-8a,9,12,13-tetrahydro-8H,11H-7,10-dioxa-1,3,6,13a-tetraazanaphtho[1,8-ab]heptalene], the IC50 on KRAS G12D amounted to 1.3 nM; against KRAS WT, 2.5 nM. The clearance in series [1] (male) stood at 40 mL/min/kg. In addition, the MRT in series [1] (male, read-out: MRT) was 1.7 h. Besides, the Vd in series [1] (male, read-out: Vd) came out at 4 L/kg. Besides, in series [1] (male), the bioavailability is 7.5%.
For the compound `CCc1c(F)ccc2cc3[nH]ncc3c(-c3nc4c5c(nc(OC[C@@]67CCCN6C/C(=C\F)C7)nc5c3F)N3CCCOC[C@H]3CO4)c12` [Ex-4, (8aS)-5-(5-ethyl-6-fluoro-1H-benzo[f]indazol-4-yl)-4-fluoro-2-(((S,Z)-2-(fluoromethylene)tetrahydro-1H-pyrrolizin-7a(5H)-yl)methoxy)-8a,9,12,13-tetrahydro-8H,11H-7,10-dioxa-1,3,6,13a-tetraazanaphtho[1,8-ab]heptalene], the IC50 at KRAS G12D is below 0.69 nM; against KRAS G13D, 0.89 nM; at KRAS Q61H, 1 nM; at HRAS, 1270 nM; against KRAS G12C it was 2.9 nM; against KRAS G12A it was below 0.69 nM. Besides, the IC50 on KRAS G12R and at KRAS WT was below 0.69 nM in each case.
Regarding `F/C=C1\CN2CCC[C@@]2(COc2nc3c4c(nc(-c5c(C6(F)CC6)c(Cl)cc6[nH]ncc56)c(F)c4n2)OC[C@@H]2COCCCN32)C1` [Ex-5, (8aS)-5-(6-chloro-5-(1-fluorocyclopropyl)-1H-indazol-4-yl)-4-fluoro-2-(((S,Z)-2-(fluoromethylene)tetrahydro-1H-pyrrolizin-7a(5H)-yl)methoxy)-8a,9,12,13-tetrahydro-8H,11H-7,10-dioxa-1,3,6,13a-tetraazanaphtho[1,8-ab]heptalene], the IC50 against KRAS G12D was below 0.69 nM; against KRAS G13D it was 1.2 nM; at KRAS Q61H, 0.97 nM; against HRAS it was 4680 nM; at KRAS G12C, 3.3 nM; at KRAS G12A, 0.83 nM. Further, the IC50 on KRAS G12R was 1.3 nM; on KRAS WT, below 0.69 nM.
As to `CCc1c(F)ccc2cc3[nH]nc(C)c3c(-c3nc4c5c(nc(OC[C@@]67CCCN6C[C@H](F)C7)nc5c3F)N3CCCOC[C@H]3CO4)c12` [Ex-6, (8aS)-5-(5-ethyl-6-fluoro-3-methyl-1H-benzo[f]indazol-4-yl)-4-fluoro-2-(((2R,7aS)-2-fluorotetrahydro-1H-pyrrolizin-7a(5H)-yl)methoxy)-8a,9,12,13-tetrahydro-8H,11H-7,10-dioxa-1,3,6,13a-tetraazanaphtho[1,8-ab]heptalene], the IC50 on KRAS G12D is 1.3 nM; on KRAS G13D, 1.9 nM; against KRAS Q61H it was 1.8 nM; against HRAS it was 5520 nM; on KRAS G12C, 6.5 nM; on KRAS G12A, 1 nM. For the same compound, the IC50 at KRAS G12R was found to be 1.2 nM; against KRAS WT it was 1.6 nM. Further, the clearance in [1] (male) was found to be 36 mL/min/kg. In addition, the MRT in series [1] (male, read-out: MRT) was 2.4 h. Also, in series [1] (male, read-out: Vd), the Vd was found to be 5.1 L/kg. For the same compound, the bioavailability in series [1] (male) is 18%.

By IC50 is commonly meant the concentration at which inhibition is half-maximal. Read a low IC50 as greater potency in that assay. For orientation: MRT means the average time that molecules of a dose stay in the body. For orientation: bioavailability means dose-corrected exposure relative to a reference, in per cent.
